The assay addresses T1, IRAK4 (Homo sapiens, UniProt Q9NWZ3).
T1 construct: endogenous in cells; host or cells: THP-1 cells
T1 sequence (Q9NWZ3 1-460): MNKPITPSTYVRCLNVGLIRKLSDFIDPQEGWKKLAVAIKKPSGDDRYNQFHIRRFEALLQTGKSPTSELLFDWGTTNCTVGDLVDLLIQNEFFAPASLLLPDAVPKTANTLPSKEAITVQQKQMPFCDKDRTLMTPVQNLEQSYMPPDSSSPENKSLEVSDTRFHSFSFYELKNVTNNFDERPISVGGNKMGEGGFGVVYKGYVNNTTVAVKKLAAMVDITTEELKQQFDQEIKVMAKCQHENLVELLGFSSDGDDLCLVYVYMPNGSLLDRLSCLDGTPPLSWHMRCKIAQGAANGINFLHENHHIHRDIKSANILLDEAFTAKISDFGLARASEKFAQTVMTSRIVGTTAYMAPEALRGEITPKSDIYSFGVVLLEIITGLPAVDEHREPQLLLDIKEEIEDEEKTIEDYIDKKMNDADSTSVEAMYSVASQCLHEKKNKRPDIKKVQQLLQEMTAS
Briefly: LVL THP1 HTRF (THP1 Homogeneous Time Resolved Fluorescence). The class given is cell-based. The settings on record: THP1 cells, 18 h incubation with compound; for DC50: read-out: LVL THP1 HTRF EC50. The gist of the method:
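THP-1 cells in phenol red-free RPMI with 10% FBS were dosed with compound (20 nL in DMSO) for 18 h at 37° C. After 2 h lysis, IRAK4 was detected with anti-IRAK4-d2/anti-IRAK4-K HTRF antibodies for 18 h at room temperature and read at 665/615 nm; a parallel CTG plate was run.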

As for `C[C@H](C#N)Nc1nc(-n2ncc3cc(C#N)cnc32)ncc1-n1cc([C@H]2CC[C@H](CCN3CCN(c4ccc(C5CCC(=O)NC5=O)cc4)CC3)CC2)nn1` (stereo partly shown) [P-377], the “LVL THP1 HTRF YMIN” value is 3.4% and the DC50 came out at 0.0083 µM.
On to `C[C@H](C#N)Nc1cc(Nc2ncc(C#N)cc2Cl)ncc1-n1cc([C@H]2CC[C@H](CCN3CCN(c4ccc(N5CCC(=O)NC5=O)cc4)[C@H](C)C3)CC2)nn1` [P-378], for which the “LVL THP1 HTRF YMIN” value was 2.2% and the DC50 is 0.013 µM.
On to `C[C@H](C#N)Nc1cc(Nc2ncc(C#N)cc2Cl)ncc1-n1cc([C@H]2CC[C@H](CCN3CCN(c4ccc(C5CCC(=O)NC5=O)cc4)CC3)CC2)nn1` (stereo partly shown) [P-379], for which the “LVL THP1 HTRF YMIN” value is reported as 1.8% and the DC50 turned out to be 0.004 µM.
The matching figures for `C[C@H](C#N)Nc1cc(Nc2ncc(Cl)cc2Cl)ncc1-n1cc([C@H]2CC[C@H](CCN3CCN(c4ccc(C5CCC(=O)NC5=O)cc4)CC3)CC2)nn1` (stereo partly shown) [P-380]: 12.1% and 0.0894 µM.
`C[C@H](C#N)Nc1cc(Nc2ncc(C#N)cc2F)ncc1-n1cc([C@H]2CC[C@H](CCN3CCN(c4ccc(C5CCC(=O)NC5=O)cc4)CC3)CC2)nn1` (stereo partly shown) [P-381]: the “LVL THP1 HTRF YMIN” value is listed as 2.1% and the DC50 came out at 0.0083 µM.
As for `C[C@H](C#N)Nc1cc(Nc2ncc(F)cc2F)ncc1-n1cc([C@H]2CC[C@H](CCN3CCN(c4ccc(C5CCC(=O)NC5=O)cc4)CC3)CC2)nn1` (stereo partly shown) [P-382], the “LVL THP1 HTRF YMIN” value stood at 4.1% and the DC50 was 0.028 µM.
The matching figures for `C[C@H](C#N)Nc1cc(Nc2ncncc2F)ncc1-n1cc([C@H]2CC[C@H](CCN3CCN(c4ccc(C5CCC(=O)NC5=O)cc4)CC3)CC2)nn1` (stereo partly shown) [P-383]: 5.6% and 0.0313 µM.
As to `C[C@H](C#N)Nc1cc(Nc2ncc(C#N)cc2Cl)ncc1-n1cc([C@H]2CC[C@H](CCN3CCN(c4ccc(N5CCC(=O)NC5=O)cc4)CC3)CC2)nn1` [P-384], the “LVL THP1 HTRF YMIN” value came to 6.5% and the DC50 was found to be 0.0454 µM.
As to `C[C@H](C#N)Nc1cc(Nc2ncc(C#N)cc2F)ncc1-n1cc([C@H]2CC[C@H](CCN3CCN(c4ccc(N5CCC(=O)NC5=O)cc4)[C@H](C)C3)CC2)nn1` [P-385], the “LVL THP1 HTRF YMIN” value is recorded as −1.9% and the DC50 turned out to be 0.0087 µM.
As to `C[C@H](C#N)Nc1cc(Nc2ncc(C#N)cc2F)ncc1-n1cc([C@H]2CC[C@H](CCN3CCN(c4ccc(N5CCC(=O)NC5=O)cc4)CC3)CC2)nn1` [P-386], the “LVL THP1 HTRF YMIN” value is 6.7% and the DC50 worked out at 0.0242 µM.
The matching figures for `C[C@H](C#N)Nc1cc(Nc2ncc(C#N)cn2)ncc1-n1cc([C@H]2CC[C@H](CCN3CCN(c4ccc(N5CCC(=O)NC5=O)cc4)[C@H](C)C3)CC2)nn1` [P-387]: 9.8% and 0.0141 µM.
On the same counts, the results for `C[C@H](C#N)Nc1cc(Nc2ncc(C#N)cn2)ncc1-n1cc([C@H]2CC[C@H](CCN3CCN(c4ccc(C5CCC(=O)NC5=O)cc4)CC3)CC2)nn1` (stereo partly shown) [P-388] are 3.5% and 0.0111 µM.
On to `C[C@H](C#N)Nc1cc(Nc2ncc(C#N)cn2)ncc1-n1cc([C@H]2CC[C@H](CCN3CCN(c4ccc(N5CCC(=O)NC5=O)cc4)CC3)CC2)nn1` [P-389], for which the “LVL THP1 HTRF YMIN” value is on record as 18.9% and the DC50 turned out to be 0.18 µM.
On to `CC(C)(O)CNc1cc(-n2ncc3cc(C#N)cnc32)ncc1-n1cc([C@H]2CC[C@H](CCN3CCN(c4ccc(C5CCC(=O)NC5=O)cc4)CC3)CC2)nn1` (stereo partly shown) [P-391], for which the “LVL THP1 HTRF YMIN” value is listed as −0.8% and the DC50 amounted to 0.0037 µM.
For the compound `CC[C@@H]1CN(CC[C@H]2CC[C@H](c3cn(-c4cnc(-n5ncc6cc(C#N)cnc65)cc4N[C@H](C)C#N)nn3)CC2)CCN1c1ccc(N2CCC(=O)NC2=O)cc1` [P-393], the “LVL THP1 HTRF YMIN” value is listed as −3.4% and the DC50 stood at 0.0061 µM.
On the same counts, the results for `CCNc1cc(-n2ncc3cc(C#N)cnc32)ncc1-n1cc([C@H]2CC[C@H](CCN3CCN(c4ccc(C5CCC(=O)NC5=O)cc4)CC3)CC2)nn1` (stereo partly shown) [P-395] are 2.6% and 0.0093 µM.
Consider `COc1cnc2c(cnn2-c2cc(N[C@H](C)C#N)c(-n3cc([C@H]4CC[C@H](CCN5CCN(c6ccc(C7CCC(=O)NC7=O)cc6)CC5)CC4)nn3)cn2)c1` (stereo partly shown) [P-397], for which the “LVL THP1 HTRF YMIN” value is 6.2% and the DC50 was found to be 0.0143 µM.
On the same counts, the results for `COc1cnc(Nc2cc(N[C@H](C)C#N)c(-n3cc([C@H]4CC[C@H](CCN5CCN(c6ccc(C7CCC(=O)NC7=O)cc6)CC5)CC4)nn3)cn2)nc1` (stereo partly shown) [P-398] are 5.8% and 0.024 µM.
The matching figures for `C[C@H](C#N)Nc1cc(-n2ncc3cc(C#N)cnc32)ncc1-n1cc([C@H]2CC[C@H](CCN3CCC(c4ccc(N5CCC(=O)NC5=O)cc4)C(F)C3)CC2)nn1` (stereo partly shown) [P-399]: 8.2% and 0.0431 µM.
On the same counts, the results for `C[C@H](C#N)Nc1cc(-n2ncc3cc(C#N)cnc32)ncc1-n1cc([C@H]2CC[C@H](CCN3CCC(c4ccc(N5CCC(=O)NC5=O)cc4)C(F)(F)C3)CC2)nn1` (stereo partly shown) [P-401] are 0.5% and 0.012 µM.
As to `N#Cc1cnc2c(cnn2-c2cc(N[C@H]3CCC[C@H]3O)c(-n3cc([C@H]4CC[C@H](CCN5CCN(c6ccc(C7CCC(=O)NC7=O)cc6)CC5)CC4)nn3)cn2)c1` (stereo partly shown) [P-402], the “LVL THP1 HTRF YMIN” value was determined as 1.9% and the DC50 amounted to 0.0033 µM.
In the case of `N#Cc1cnc2c(cnn2-c2cc(N[C@H]3CCC[C@@H]3O)c(-n3cc([C@H]4CC[C@H](CCN5CCN(c6ccc(C7CCC(=O)NC7=O)cc6)CC5)CC4)nn3)cn2)c1` (stereo partly shown) [P-403], the “LVL THP1 HTRF YMIN” value is listed as 3.7% and the DC50 was 0.0025 µM.
On the same counts, the results for `N#Cc1cnc2c(cnn2-c2cc(NC3CCOCC3)c(-n3cc([C@H]4CC[C@H](CCN5CCN(c6ccc(C7CCC(=O)NC7=O)cc6)CC5)CC4)nn3)cn2)c1` (stereo partly shown) [P-406] are 1.7% and 0.0076 µM.
On the same counts, the results for `N#Cc1cnc2c(cnn2-c2cc(NCC3CCOCC3)c(-n3cc([C@H]4CC[C@H](CCN5CCN(c6ccc(C7CCC(=O)NC7=O)cc6)CC5)CC4)nn3)cn2)c1` (stereo partly shown) [P-407] are 5.6% and 0.0358 µM.
`N#Cc1cnc2c(cnn2-c2cc(NCC3COC3)c(-n3cc([C@H]4CC[C@H](CCN5CCN(c6ccc(C7CCC(=O)NC7=O)cc6)CC5)CC4)nn3)cn2)c1` (stereo partly shown) [P-408]: the “LVL THP1 HTRF YMIN” value was 7.8% and the DC50 was 0.0426 µM.
On the same counts, the results for `N#Cc1cnc2c(cnn2-c2cc(OC3CC3)c(-n3cc([C@H]4CC[C@H](CCN5CCN(c6ccc(C7CCC(=O)NC7=O)cc6)CC5)CC4)nn3)cn2)c1` (stereo partly shown) [P-409] are 8.3% and 0.0825 µM.
As to `N#Cc1cnc2c(cnn2-c2cc(OCC3CCOCC3)c(-n3cc([C@H]4CC[C@H](CCN5CCN(c6ccc(C7CCC(=O)NC7=O)cc6)CC5)CC4)nn3)cn2)c1` (stereo partly shown) [P-411], the “LVL THP1 HTRF YMIN” value turned out to be 90.4% and the DC50 was 1 µM.
The matching figures for `N#Cc1cnc2c(cnn2-c2cc(NC3CCCC3)c(-n3cc([C@H]4CC[C@H](CCN5CCN(c6ccc(N7CCC(=O)NC7=O)cc6)CC5)CC4)nn3)cn2)c1` [P-412]: 15.2% and 0.16 µM.
On the same counts, the results for `C[C@H](C#N)Nc1cc(-n2ncc3cc(C#N)cnc32)ncc1-n1cc([C@H]2CC[C@H](CCN3CCC(c4ccn(C5CCC(=O)NC5=O)c(=O)c4)CC3)CC2)nn1` (stereo partly shown) [P-413] are −1.3% and 0.0051 µM.

The values above are taken from patent US20240109881A1, “Heteroaryl Compounds as Ligand Directed Degraders of IRAK4” (Bristol-Myers Squibb Company, priority 2022, published 2024).
